Source: patent publication US12590123B2, “Compounds and methods for treating cancer, viral infections, and allergic conditions” (Washington University, priority 2019, dated 2026)

Legend:
Assay type in all cases: biochemical
matriptase = target: T1, matriptase (Homo sapiens, UniProt Q9Y5Y6); experiment: Fluorescent kinetic enzyme assay of matriptase activity (Boc-QAR-AMC); details: Example 12; read-out: IC50 for matriptase
T1 construct: purchased R&D Systems 3946-SE-010
T1 sequence (Q9Y5Y6 615-855 limits assumed): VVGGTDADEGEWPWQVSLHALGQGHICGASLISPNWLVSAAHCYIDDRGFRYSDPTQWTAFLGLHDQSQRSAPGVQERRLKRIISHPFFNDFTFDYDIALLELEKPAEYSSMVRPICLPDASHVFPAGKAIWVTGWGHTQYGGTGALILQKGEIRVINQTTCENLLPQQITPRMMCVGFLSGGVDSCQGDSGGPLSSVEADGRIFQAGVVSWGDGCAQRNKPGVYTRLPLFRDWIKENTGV
Procedure: After thirty minutes of incubation at room temperature, Boc-QLR-AMC substrate was added (HGFA assay) or Boc-QAR-AMC substrate (matriptase, and hepsin assays). […] From a plot of the mean reaction velocity versus the inhibitor concentration, a non-linear four parameter curve fit was performed using GraphPad Prism (GraphPad Software, San Diego, CA) to determine inhibitor IC50s. The IC50 values were determined from the average of three or more separate experimental determinations. Apparent Ki values were calculated using the Cheng and Prusoff equation (Ki=IC50/(1+[S]/Km).
Inhibitors were pre-incubated with protease followed by the addition of the substrate. Inhibition of substrate proteolysis derived fluorescence was monitored kinetically over a period of one hour.

activated hepsin = target: T2, activated hepsin (Homo sapiens, UniProt P05981); experiment: Fluorescent kinetic enzyme assay of hepsin activity (Boc-QAR-AMC); details: Example 12; read-out: IC50 for hepsin
T2 construct: purchased R&D Systems 4776-SE-010

recombinant thrombin = recombinant thrombin (Homo sapiens, UniProt P00734); experiment: Chromogenic kinetic enzyme assay of thrombin (S2238); details: Table 3; average of three experiments; read-out: Thrombin IC50
Procedure: (§1) Using GraphPad Prism (GraphPad Software, San Diego, CA), a four-parameter curve fit was used to determine the inhibitor IC50s from a plot of the mean reaction velocity versus the inhibitor concentration. The IC50 values represent the average of three or more separate experimental determinations. Apparent Ki values were calculated from the IC50 values using the Cheng and Prusoff equation (Ki=IC50/(1+[S]/Km).
(§2) Using GraphPad Prism version 6.04 software program, (GraphPad Software, San Diego, CA, graphpad.com), a four parameter curve fit was used to determine the inhibitor IC50s from a plot of the mean reaction velocity versus the inhibitor concentration.
(§3) Fluorescent inhibitor and chromogenic proteolytic assays were performed for compounds prepared in Example 11 in general accordance with the procedures described in Example 9.

Factor Xa = Factor Xa (Homo sapiens, UniProt P00742); experiment: Chromogenic kinetic enzyme assay of Factor Xa (S2222); details: Table 3; average of three experiments; read-out: Factor Xa IC50
Procedure: as §1, §2, §3

T2 sequence (P05981 163-417 limits assumed): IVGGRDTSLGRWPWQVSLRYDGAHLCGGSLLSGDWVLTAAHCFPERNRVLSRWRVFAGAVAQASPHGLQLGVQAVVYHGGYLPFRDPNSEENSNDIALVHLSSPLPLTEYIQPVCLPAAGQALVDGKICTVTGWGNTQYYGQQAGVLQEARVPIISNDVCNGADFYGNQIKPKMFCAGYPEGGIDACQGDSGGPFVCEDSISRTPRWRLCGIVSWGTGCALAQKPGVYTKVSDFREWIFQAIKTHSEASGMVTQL
T2 sequence (P05981 1-162 partner limits assumed): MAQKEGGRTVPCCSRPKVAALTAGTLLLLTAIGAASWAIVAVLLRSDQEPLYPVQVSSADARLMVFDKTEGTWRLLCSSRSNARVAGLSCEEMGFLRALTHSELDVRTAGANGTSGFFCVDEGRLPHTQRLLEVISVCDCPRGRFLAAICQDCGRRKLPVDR
Factor Xa, sequence (P00742 235-488 limits assumed): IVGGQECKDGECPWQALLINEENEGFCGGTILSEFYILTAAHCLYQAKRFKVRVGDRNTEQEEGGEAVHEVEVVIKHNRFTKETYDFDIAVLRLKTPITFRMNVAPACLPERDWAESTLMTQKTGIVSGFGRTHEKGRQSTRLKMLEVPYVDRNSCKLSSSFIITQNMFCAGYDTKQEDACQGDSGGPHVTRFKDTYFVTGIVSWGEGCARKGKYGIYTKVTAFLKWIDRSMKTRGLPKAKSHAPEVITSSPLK
Factor Xa, sequence (P00742 41-179 partner limits assumed): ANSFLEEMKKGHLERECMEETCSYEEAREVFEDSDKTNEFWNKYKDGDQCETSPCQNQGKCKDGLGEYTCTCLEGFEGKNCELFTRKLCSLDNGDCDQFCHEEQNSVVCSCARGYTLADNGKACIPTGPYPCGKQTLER

## CC(=O)N1CCC(CCc2ccccc2)(OC(=O)N[C@@H](CC(C)C)C(=O)N[C@@H](CCCNC(=N)N)C(=O)c2nc3ccccc3s2)CC1 [Compound 8c, 1-acetyl-4-phenethylpiperidin-4-yl ((S)-1-(((S)-1-(benzo[d]thiazol-2-yl)-5-guanidino-1-oxopentan-2-yl)amino)-4-methyl-1-oxopentan-2-yl)carbamate]
matriptase
  IC50: 70 nM
Activated hepsin
  IC50: 0.5 nM
Recombinant thrombin
  IC50: 7700 nM
Factor Xa
  IC50: 2000 nM
